System: DMPK
Test: DMPK knockdown by transfected antisense oligonucleotides in DM1 C15 myotubes at 0.5 nM and 50 nM
Assay type: cell-based
Details: 72 hours; for Normalized DMPK Remaining: relative to vehicle control = 1.00
In short: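 Seven-day-differentiated DM1 C15 myotubes transfected (Lipofectamine MessengerMax) with each oligonucleotide at 0.5 nM or 50 nM final, biological triplicates. After 72 h, DMPK mRNA quantified by qPCR, expressed relative to vehicle-only transfection set to 1.00.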

Substance	Percent DMPK Reduction (0.5 nM oligonucleotide) [%]	Normalized DMPK Remaining (0.5 nM oligonucleotide)	Percent DMPK Reduction (50 nM oligonucleotide) [%]	Normalized DMPK Remaining (50 nM oligonucleotide)
431 (GGAGCAGGGAAAGCGCCUCC; chemistry not given here) [compound 431]	21.46	0.79	88.35	0.12
432 (UGCCUCGCGUAGUUGACUGG; chemistry not given here) [compound 432]	11.03	0.89	88.02	0.12
433 (GCGGAUGGCCUCCAUCUCCC; chemistry not given here) [compound 433]	21.25	0.79	71.77	0.28
434 (UUUCAUAGGCGAAUACACCC; chemistry not given here) [compound 434]	5.56	0.94	53.28	0.47
435 (GCCUGUCAGCGAGUCGGAGG; chemistry not given here) [compound 435]	10.81	0.89	75.67	0.24
436 (CCACUUCAGCUGUUUCAUCC; chemistry not given here) [compound 436]	22.40	0.78	64.20	0.36
437 (CAUCCGCUCCUGCAACUGCC; chemistry not given here) [compound 437]	21.04	0.79	76.81	0.23
438 (UCUAGGGUUCAGGGAGCGCG; chemistry not given here) [compound 438]	21.81	0.78	83.22	0.17
439 (CACCAACACGUCCCUCUCCU; chemistry not given here) [compound 439]	37.51	0.62	81.57	0.18
440 (CAGGAGCAGGGAAAGCGCCU; chemistry not given here) [compound 440]	12.48	0.88	51.82	0.48
441 (CAAUCUCCGCCAGGUAGAAG; chemistry not given here) [compound 441]	15.95	0.84	49.25	0.51
442 (AUGUUGUCGGGUUUGAUGUC; chemistry not given here) [compound 442]	16.93	0.83	52.83	0.47
443 (CCAUCCGCUCCUGCAACUGC; chemistry not given here) [compound 443]	19.53	0.80	71.62	0.28
444 (GCGUCACCUCGGCCUCAGCC; chemistry not given here) [compound 444]	20.02	0.80	81.27	0.19
445 (GAGGGCCUUUUAUUCGCGAG; chemistry not given here) [compound 445]	8.23	0.92	62.21	0.38
446 (AGCGGCAGAGAGAGGUGCUC; chemistry not given here) [compound 446]	19.75	0.80	90.71	0.09
447 (CAUCCAAAACGUGGAUUGGG; chemistry not given here) [compound 447]	19.12	0.81	77.98	0.22
448 (UUGGGCAGAUGGAGGGCCUU; chemistry not given here) [compound 448]	19.08	0.81	78.39	0.22
449 (CCUCUGCCUCGCGUAGUUGA; chemistry not given here) [compound 449]	7.39	0.93	85.33	0.15
450 (ACAGAACAACGGCGAACAGG; chemistry not given here) [compound 450]	2.07	0.98	55.96	0.44

Substance	Percent DMPK Reduction (0.5 nM oligonucleotide) [%]	Normalized DMPK Remaining (0.5 nM oligonucleotide)	Percent DMPK Reduction (50 nM oligonucleotide) [%]	Normalized DMPK Remaining (50 nM oligonucleotide)
451 (CAGGAUGUUGUCGGGUUUGA; chemistry not given here) [compound 451]	17.17	0.83	79.31	0.21
452 (CGGCCUCAGCCUCUGCCGCA; chemistry not given here) [compound 452]	6.71	0.93	60.06	0.40
453 (CAGCAGGAUGUUGUCGGGUU; chemistry not given here) [compound 453]	34.18	0.66	84.54	0.15
454 (GCAGAGAGAGGUGCUCCUUG; chemistry not given here) [compound 454]	17.29	0.83	85.95	0.14
455 (UCCAGUUCCAUGGGUGUGGG; chemistry not given here) [compound 455]	15.66	0.84	78.48	0.22
456 (CCUCAGCCUGGCCGAAAGAA; chemistry not given here) [compound 456]	16.83	0.83	63.99	0.36
457 (GGGCCUUUUAUUCGCGAGGG; chemistry not given here) [compound 457]	5.11	0.95	50.65	0.49
458 (GUCGGCCAGGCGGAUGUGGC; chemistry not given here) [compound 458]	15.35	0.85	74.59	0.25
459 (GCUUGCUGCCUUCCCAGGCC; chemistry not given here) [compound 459]	1.14	0.99	81.01	0.19
460 (GGUCCAGCAGGAUGUUGUCG; chemistry not given here) [compound 460]	31.78	0.68	79.93	0.20
461 (CGGAGACCAUCCCAGUCGAG; chemistry not given here) [compound 461]	14.08	0.86	79.93	0.20
462 (UCUGCCUCGCGUAGUGACU; chemistry not given here) [compound 462]	3.53	0.96	86.86	0.13
463 (AGGUAGUUCUCAUCCUGGAA; chemistry not given here) [compound 463]	7.36	0.93	62.62	0.37
464 (UCCUUGUAGUGGACGAUCUU; chemistry not given here) [compound 464]	12.96	0.87	84.87	0.15
465 (GCAUCCAAAACGUGGAUUGG; chemistry not given here) [compound 465]	2.54	0.97	72.69	0.27
466 (GUCCAGCAGGAUGUGUCGG; chemistry not given here) [compound 466]	30.00	0.70	82.64	0.17
467 (AGCUCCCGCAGCGUCACCUC; chemistry not given here) [compound 467]	13.72	0.86	80.40	0.20
468 (CGAGAGCAGCGCAAGUGAGG; chemistry not given here) [compound 468]	-2.19	1.02	37.11	0.63
469 (CAGGGAAAGCGCCUCCGAUA; chemistry not given here) [compound 469]	11.10	0.89	91.59	0.08
470 (AUUUCAUAGGCGAAUACACC; chemistry not given here) [compound 470]	-4.54	1.05	44.15	0.56

— US20230144436A1, “MUSCLE TARGETING COMPLEXES AND USES THEREOF FOR TREATING MYOTONIC DYSTROPHY” (Dyne Therapeutics, Inc., priority 2020, published 2023)
